Experimental data published in US20090298838A1, “Method for Determination of Effective Dose of Methotrexate” (StaGen Co., Ltd., priority 2005, published 2009).
Marks after values point to notes of the source that are not given here.

Legend:
[1] = system: patients suffering from rheumatoid arthritis; experiment: Relationship between genotype of A1298C polymorphism in the MTHFR gene and dose of methotrexate 12 months after start of administration (157 patients); assay type: in vivo, human; settings: for Risk ratio of high dose: high dose = more than 6 mg/week at 12 months
Description: Target patients were 157 patients (M/F=24/133) suffering from rheumatoid arthritis who were attending to Institute of Rheumatology Tokyo Women's Medical University Hospital. All of those patients were different from patients examined in Non-Patent Document 3.
Examinations were performed on genotypes of A1298C in the MTHFR gene in these 157 patients suffering from rheumatoid arthritis and doses of methotrexate to the patients 12 months after a start of administration.
Genomic DNA was extracted from leukocytes in peripheral blood of each patient suffering from rheumatoid arthritis. From the genomic DNA, a DNA region including A1298C in the MTHFR gene was amplified by PCR. The primers shown in SEQ ID NO: 1 and SEQ ID NO: 2 in Sequence Listing were used for the amplification.
The DNA amplification reaction was performed in a system of a total volume of 50 μl, which contains 5 μl of 10×PCR Buffer (Applied Biosystem, Japan), 0.5 μl (=2.5 U) of AmpliTaq Gold (Applied Biosystem, Japan), 5.01 of 8 mM dNTP (200 μM of each dNTP), and 1 μl of each 10 pmole primer (0.2 μM of each primer). Conditions of the PCR included: totally 34 cycles of denaturing at 95° C. for 10 minutes, of reactions each at 95° C. for 30 seconds, at 65° C. for 30 seconds, and at 72° C. for 60 seconds; and final extension at 72° C. for 7 minutes.
The products amplified by the PCR were cut by the restriction enzyme Fnu4I and subjected to electrophoresis to examine whether they were cut or not, to thereby determine the genotypes (A/A, A/C, C/C) in each patient.
Alleles and genotypes in group were compared by using Fisher's exact test for statistic analysis and Chi-square test, and Excel was used as a statistical software.
In the present Example, a dose of more than 6 mg/week 12 months after the start of the administration of the methotrexate was defined as a high dose, and otherwise defined as a low dose. Individuals were classified into A/A, A/C, and C/C based on the genotypes of A1298C polymorphism in the MTHFR and summarized to a relationship between the genotypes and the high dose. As shown in FIG. 1 and Table 2, a ratio of the high dose of the methotrexate was high in the order of A/A>A/C>C/C in the genotypes. […] A possibility that patients having the A/A genotype are required to have a high dose of the methotrexate is 49%. Compared with this, possibilities of patients having the A/C genotype and patients having the C/C genotype were 28% and 13%, respectively (Table 2 and FIG. 1). There were a difference of 1.7 (risk ratio, P<0.05) between A/A and A/C, and a difference of 3.8 (risk ratio, P<0.05) between A/A and C/C.
Table 3 and FIG. 2 show a relationship between the A/A genotype of A1298C polymorphism in the MTHFR and a dose and a relationship between the other genotypes (A/C and C/C) and a dose in all the subjects of the patients suffering from the rheumatoid arthritis. In the present reference example, the dose of more than 6 mg/week 12 months after the start of the administration of the methotrexate was defined as a high dose, and otherwise defined as a low dose. Genotypes of A1298C polymorphism in the MTHFR were classified into A/A and other genotype and summarized to a relationship between the genotypes and the high dose.

[2] = system: patients suffering from the rheumatoid arthritis; settings: A/A genotype (68 individuals) versus A/C and C/C (31 individuals); administration for at least 3 months; cited from earlier work

SMILES: CN(Cc1cnc2nc(N)nc(N)c2n1)c1ccc(C(=O)N[C@@H](CCC(=O)O)C(=O)O)cc1 [methotrexate]
- Ratio of high dose ([1]; A/A genotype, final dose more than 6 mg/week 12 months after start of administration): 0.485*
- Ratio of high dose ([1]; A/A genotype, final dose more than 6 mg/week 12 months after start of administration, listed as MTX): 0.485*,**
- Possibility that patients are required to have a high dose ([1]; A/A genotype, more than 6 mg/week at 12 months): 49%
- Risk ratio of high dose ([1]; A/A versus A/C genotype): 1.7
- Risk ratio of high dose ([1]; A/A versus C/C genotype): 3.8
- Ratio of high dose ([1]; A/C + C/C genotypes, dose more than 6 mg/week 12 months after start of administration): 0.259}
- Ratio of high dose ([1]; A/C genotype, final dose more than 6 mg/week 12 months after start of administration): 0.283*
- Possibility that patients are required to have a high dose ([1]; A/C genotype, more than 6 mg/week at 12 months): 28%
- Ratio of high dose ([1]; C/C genotype, final dose more than 6 mg/week 12 months after start of administration): 0.125**
- Possibility that patients are required to have a high dose ([1]; C/C genotype, more than 6 mg/week at 12 months): 13%
- Ratio of high dose ([1]; Total, all genotypes (157 persons), final dose more than 6 mg/week 12 months after start of administration): 0.408
- Individuals classified to a high dose ([1]; either A/C or C/C genotype, more than 6 mg/week at 12 months): 26%
- Proportion ratio of patients administered more than 5 mg/week [2]: 1.78
